Laboratory results published in a melting point compilation (Tetko et al.).

| melting point [°C] | Compound |
| --- | --- |
| 139 to 141 | O=Cc1ccc(OCC(=O)Nc2ccc(Cl)cc2)cc1 |
| 261 to 263 | N#Cc1cccc(CNc2ccc3[nH]c(=O)[nH]c3c2)c1 |
| 174 to 176 | O=C(O)c1cc(C(F)(F)F)ccc1SC1CCCC1 |
| 162 to 164 | O=C(O)C(Cc1ccccc1)NC(=O)C12CC3CC(CC(C3)C1)C2 (stereo not drawn) |
| 161 to 163 | NCCNC(CC(=O)O)C(N)=O (stereo not drawn) |
| 110 to 112 | Nc1ccc(CC(=O)Nc2ccccc2F)cc1 |
| 186 to 188 | Cc1nn(C)c(C)c1O |
| 95 to 97 | CN1CCCN(c2nc3ccccc3cc2CO)CC1 |
| 164 to 168 | CC1C(=O)Nc2ccc(S(=O)(=O)Cl)cc21 (stereo not drawn) |
| 198 to 202 | CCCc1nnc(N)s1 |
| 206 to 208 | N#Cc1ccccc1S(=O)(=O)N1CCN(C(=O)CCl)CC1 |
| 159 to 161 | O=S(=O)(Nc1ccc(F)c(F)c1)c1ccc(Cl)nc1 |
| 189 to 191 | Oc1ccc2cn[nH]c2c1 |
| 187 to 189 | NC(=O)c1ncc(Br)cc1Br |
| 137 to 139 | COC(=O)c1cccc(C(N)=S)c1 |
| 116 to 118 | CN1CCCC(N(C)C(=O)c2ccc(N)cc2)C1 (stereo not drawn) |
| 71 to 73 | CNc1ccc(F)cc1[N+](=O)[O-] |
| 109 to 111 | Cc1cc(Cl)c2cccc([N+](=O)[O-])c2n1 |
| 212 to 214 | O=C(O)c1csc(-c2ccc(Cl)c(Cl)c2)n1 |
| 139 to 141 | Cc1cccc(C(=O)NO)c1O |
| 82 to 84 | CCOC(OCC)c1cc(-c2cccc(F)c2)[nH]n1 |
| 59 to 61 | CCCOc1ccc(Cl)cc1C(=O)O |
| 146 to 148 | O=C(CCl)N1CCCc2cc(S(=O)(=O)N3CCCC3)ccc21 |
| 134 to 136 | O=C(O)CNc1ccc(C(F)(F)F)cn1 |
| 50 to 54 | O=Cc1cccnc1Cl |

| melting point [°C] | Compound |
| --- | --- |
| 55 to 57 | Cc1cc(C(=O)CCl)c(C)n1CCC(C)C |
| 79 to 81 | N#Cc1cccnc1NCCO |
| 115 to 117 | Cc1cc(C(=O)CCl)c(C)n1-c1ccc(F)c(Cl)c1 |
| 56 to 58 | Cc1ccc(CC(=O)O)o1 |
| 299 to 301 | Cn1c(Cl)nc2c1c(=O)[nH]c(=O)n2C |
| 70 to 72 | Cc1cccc(C#N)n1 |
| 159 to 161 | COCCc1ccc2oc(N)nc2c1 |
| 139 to 141 | Cc1cccc(Cl)c1NC(=O)CBr |
| 51 to 53 | CCCCc1nc(-c2cccc(O)c2)no1 |
| 48 to 51 | O=C=Nc1ccc2c(c1)OCO2 |
| 166 to 168 | CC(NC(=O)c1ccoc1)C(=O)O (stereo not drawn) |
| 70 to 72 | CCS(=O)(=O)N(C)CC(=O)O |
| 58 to 60 | COC(=O)C(=O)CC(=O)c1ccccc1 |
| 122 to 124 | N#CCc1ccc(NC(=O)CCl)cc1 |
| 209 to 211 | O=C(O)C=Cc1ccc(Cl)nc1 |
| 225 to 227 | COc1ccc(C(=O)O)cc1-c1ccnn1C |
| 156 to 158 | CN(C)C(=O)c1ccc2c(c1)CCN2 |
| 156 to 158 | CNS(=O)(=O)c1cc(OC)c(OC)cc1Br |
| 244 to 246 | NC(=O)N1CC=C(c2ccc(O)cc2)CC1 |
| 84 to 86 | CN(CCCN1C(=O)C=CC1=O)c1ccccc1 |
| 206 to 208 | CCOC(=O)c1sc(N)c(C#N)c1CBr |
| 167 to 169 | NC(=O)Cn1cc([N+](=O)[O-])cn1 |
| 65 to 67 | CNCc1cn(-c2ccccc2)nc1-c1ccc(Cl)cc1 |
| 50 to 52 | NCc1ccc(N2CCSCC2)cc1 |
| 119 to 121 | CN(C)c1ccc(C2CC2C(=O)O)cc1 (stereo not drawn) |

| melting point [°C] | Compound |
| --- | --- |
| 203 to 207 | CC1(c2ccc(Cl)c(Cl)c2)NC(=O)NC1=O (stereo not drawn) |
| 111 to 114 | COc1cc(SC)ccc1C(=O)O |
| 137 to 139 | CCOC(=O)c1cnc2ccc(Cl)cn2c1=O |
| 133 to 135 | Cc1cnoc1C(=O)O |
| 41 to 43 | CNCc1c(C)nn(-c2ccccc2C)c1C |
| 159 to 161 | COc1cc2ccncc2cc1O |
| 169 to 171 | Cc1cc(S(=O)(=O)Cl)cc(C(=O)O)c1F |
| 192 to 194 | NC(C(=O)O)c1cccc(C(F)(F)F)c1 (stereo not drawn) |
| 106 to 108 | COC(=O)c1cc(C)cc([N+](=O)[O-])c1N |
| 135 to 137 | Nc1cc(C(=O)N2CCCCC2)ccc1Cl |
| 289 to 291 | N#Cc1cnn(-c2ccc(C(=O)O)cc2)c1N |
| 119 to 121 | CC(NS(=O)(=O)Cc1ccccc1)C(=O)O (stereo not drawn) |
| 135 to 137 | C=CCn1c(S)n[nH]c1=O |
| 47 to 49 | C#Cc1cccc(OC)n1 |
| 146 to 148 | NC(=S)c1cc2ccccc2o1 |
| 220 to 222 | COc1ccc(C(=O)O)cc1-c1ccccc1 |
| 56 to 58 | Cc1nc(-c2cccc(N)c2)n[nH]1 |
| 97 to 99 | CCOC(=O)c1ccn(-c2cccc(N)c2)n1 |
| 159 to 161 | Cn1c(=O)oc2cc(C(=O)CCl)ccc21 |
| 211 to 213 | COc1cc(C(=O)O)cc(Cl)c1OCC(N)=O |
| 169 to 171 | CCCc1cc(C(=O)O)[nH]n1 |
| 347 to 349 | O=C(O)c1cc(-c2ccccc2)nc2nc(N3CCCCC3)sc12 |
| 313 to 315 | NC(=O)Cn1c(S)nnc1-c1ccco1 |
| 39 to 41 | COc1ccc(C(O)C2CC2)c(C)c1 (stereo not drawn) |
| 53 to 55 | Cc1c(S(=O)(=O)Cl)cnn1-c1ccccn1 |

| melting point [°C] | Compound |
| --- | --- |
| 349 to 351 | O=c1[nH]c2ccccc2n2cncc12 |
| 72 to 74 | Cc1ccc(-c2csc(CN)n2)cc1 |
| 62 to 64 | CC(C)(C)OC(=O)C(C#N)c1nccnc1Cl (stereo not drawn) |
| 73 to 75 | N#Cc1ccccc1Oc1cnccn1 |
| 209 to 211 | N#Cc1c(SCC(=O)O)nc2c(c1-c1ccco1)CCCC2 |
| 49 to 51 | COc1ccc(C2CCCCC(O)C2)cc1 (stereo not drawn) |
| 185 to 187 | O=c1[nH]nnc2sc3c(c12)CCCC3 |
| 125 to 127 | Cc1cc(Oc2cnccn2)ccc1N |
| 95 to 97 | CC(C)(C)c1cc(NC(=O)CCl)on1 |
| 42 to 46 | Clc1csc(Cl)n1 |
| 157 to 159 | Cc1nn(CC(F)(F)F)c(C)c1CC(=O)O |
| 132 to 134 | O=C(O)COc1ccc2oc3ccccc3c2c1 |
| 107 to 109 | CS(=O)(=O)Nc1ccc(CCl)cc1 |
| 152 to 154 | COc1cc(OC)c([N+](=O)[O-])cc1F |
| 111 to 113 | Clc1nc(-c2ccccc2)c2ccccc2n1 |
| 194 to 196 | Cc1[nH]c(-c2ncccn2)nc(=O)c1CC(=O)O |
| 163 to 165 | O=C(O)CNC1=NCCCCC1 |
| 121 to 124 | Nc1ccc(CCCC(=O)O)cc1 |
| 122 to 124 | COC(=O)C(C#N)=NO |
| 64 to 66 | N#CCC(C(=O)O)c1ccccc1 (stereo not drawn) |
| 116 to 118 | O=C(O)CCOc1ccc([N+](=O)[O-])cc1 |
| 68 to 70 | CCOC(=O)c1oc2c(Br)cccc2c1C |
| 164 to 166 | CC1=NN(c2ccc(Br)cc2)C(=O)C1 |
| 172 to 174 | Cc1nc(C(=O)O)nn1-c1ccccc1 |
| 88 to 90 | CN(C(=O)CC#N)C1CCCCC1 |

| Compound | melting point [°C] |
| --- | --- |
| FC(F)(F)c1ccc2sc(C3CCNCC3)nc2c1 | 71 to 73 |
| NCCc1c[nH]c2cc(Cl)ccc12 | 104 to 106 |
| CC(C)(C)OC(=O)N1C2CCC1C(C(=O)O)C2 (stereo not drawn) | 144 to 146 |
